Results taken from ChEMBL document CHEMBL1159215, “Isolation of antifungal and larvicidal constituents of Diplolophium buchanani by centrifugal partition chromatography” (1995).
The source made the active and inactive calls. No cut-off for these calls is given here.

Columns and labels:
Aedes aegypti [1] = test: Larvicidal activity against Aedes aegypti larvae after 24 hrs […]; assay type: functional
Cladosporium cucumerinum = test: Antifungal activity against Cladosporium cucumerinum assessed as inhibition of spore growth by TLC bioassay; assay type: functional
Aedes aegypti [2] = test: Larvicidal activity against Aedes aegypti larvae at 400 ppm after 24 hrs […]; assay type: functional, organism-based

| Compound | LD100 (Aedes aegypti [1]) [ppm] | Activity (Aedes aegypti [1]) | Activity (Cladosporium cucumerinum) [µg] | Activity (Aedes aegypti [2]) |
| --- | --- | --- | --- | --- |
| C/C=C\c1cc(OC)c(OC)cc1OC [CIS-ASARONE] | 16 | – | – | – |
| CC(C)(O)[C@H](O)COc1c2ccoc2cc2oc(=O)ccc12 [OXYPEUCEDANIN HYDRATE] | – | inactive | 10 | inactive |
| Clc1ccc(COC(Cn2ccnc2)c2ccc(Cl)cc2Cl)c(Cl)c1 (configuration not stated) [MICONAZOLE] | – | – | 1 | – |
| CC1(C)O[C@H]1COc1c2ccoc2cc2oc(=O)ccc12 [OXYPEUCEDANIN] | 25 | – | 1 | – |
